Results on 4 substances are retold here after patent US10689622B2, “Culture medium for proliferating stem cell, which contains sulfated compound” (AJINOMOTO CO., INC., priority 2012, dated 2020).

Data set [1] concerns the target T1, bFGF (Homo sapiens, UniProt P09038).
T1 construct: purchased Lonza (via TAKARA BIO INC.) Ser. No. 00/190,632
The data set can be described thus: Evaluation of bFGF stabilization in Lonza serum-free medium (ELISA). Type of data set: biochemical. As to the method: A test compound was dissolved in phosphate buffered saline, and diluted 10-fold with a serum-free medium to adjust to the concentrations shown in Table 4 (test sample). The test sample was left standing in a tightly sealed Falcon tube at 37° C. for 7 days (Tables 5 to 8-2) or 3 days (Table 8-3), and the bFGF concentration was quantified by ELISA measurement. A phosphate buffered saline without a test compound was diluted 10-fold with a serum-free medium, and left standing at 37° C. or 4° C. for 7 days or 3 days, and used as a control.
(§1) A commercially available measurement kit (human bFGF ELISA kit, ELH-bFGF-001, Ray Biotech) was used for quantification of bFGF in the medium. The measurement procedures followed the protocol attached to the kit. The bFGF concentration of the serum-free medium was calculated from the analytical curve (conversion formula) drawn from the absorbance of an analytical curve standard solution. The evaluation criteria of Tables 5-8 are as follows:
A test compound was dissolved in phosphate buffered saline, and diluted 10-fold with a serum-free medium to adjust to the concentrations shown in Table 13 (test sample). The test sample was left standing in a tightly sealed Falcon tube at 37° C. for 7 days, and the bFGF concentration was quantified by ELISA measurement. A phosphate buffered saline without a test compound was diluted 10-fold with a serum-free medium, and left standing at 37° C. or 4° C. for 7 days, and used as a control.
A commercially available measurement kit (human bFGF ELISA kit, ELH-bFGF-001, Ray Biotech) was used for quantification of bFGF in the medium. The measurement procedures followed the protocol attached to the kit. The bFGF concentration of the serum-free medium was calculated from the analytical curve (conversion formula) drawn from the absorbance of an analytical curve standard solution. The evaluation criteria of Table 13 are as follows: […]

Data set [2] has as its target T1, bFGF. The experiment in a line: Evaluation of bFGF stabilization in Essential 8 medium (ELISA). To be noted: 37° C. for 7 days. Type of data set: biochemical. The protocol: as §1
A test compound was dissolved in phosphate buffered saline, and diluted 10-fold with a serum-free medium to adjust the concentration shown in Table 4 (test sample). The test sample was left standing in a tightly sealed Falcon tube at 37° C. for 7 days, and the bFGF concentration was quantified by ELISA measurement. A phosphate buffered saline without a test compound was diluted 10-fold with Essential 8 medium or ReproFF2 medium, and left standing at 37° C. or 4° C. for 7 days, and used as a control.
A commercially available measurement kit (human bFGF ELISA kit, ELH-bFGF-001, Ray Biotech) was used for quantification of bFGF in the medium. The measurement procedures followed the protocol attached to the kit. The bFGF concentration of the serum-free medium was calculated from the analytical curve (conversion formula) drawn from the absorbance of an analytical curve standard solution. The evaluation criteria of Table 13 are as follows:
A test compound was dissolved in phosphate buffered saline, and diluted 10-fold with a serum-free medium to adjust the concentration shown in Table 12 (test sample). The test sample was left standing in a tightly sealed Falcon tube at 37° C. for 7 days, and the bFGF concentration was quantified by ELISA measurement. A phosphate buffered saline without a test compound was diluted 10-fold with Essential 8 medium or ReproFF2 medium, and left standing at 37° C. or 4° C. for 7 days, and used as a control.
In general terms: An ELISA detects its analyte on a solid surface through an enzyme-linked reagent.

Data set [3] in a line: Measurement of content level of sulfur in test compound (ICP). It counts as physicochemical. Particulars: for sulfur content Found (inorganic analysis): ICPS-8100, evaluation samples containing 0.01 wt % test compound. An excerpt: The content level of sulfur in the sulfated saccharide is generally not less than 5 wt %, preferably not less than 10 wt %, more preferably not less than 15 wt %, and the upper limit is generally not more than 40 wt %, preferably not more than 35 wt %, more preferably not more than 30 wt %. […] Here, the content level of sulfur is a proportion in wt % of sulfur derived only from the sulfate group in sulfated saccharides, which can be measured by a method known in the field (e.g., rhodizonate method, elemental analysis or luminescent spectral analysis).
The content level of sulfur in the sulfated polymer is generally not less than 5 wt %, preferably not less than 10 wt %, more preferably not less than 15 wt %, and the upper limit is generally not more than 40 wt %. […] Here, the content level of sulfur is a proportion in wt % of sulfur in the sulfated polymer, which can be measured by a method known in the field such as rhodizonate method, elemental analysis or luminescent spectral analysis).
The relationship between the content level of sulfur in a test compound (sulfur content) and the cell proliferation promoting effect was examined. The sulfur content was measured using ICPS-8100 manufactured by SHIMADZU CORPORATION and analyzed using ICPS-8000 series Ver1.03. As the reference standard of sulfur, the standard for ICP-MS manufactured by Accu Standard was used. Sulfur reference standard solutions (0, 1, 10, 30, 50 ppm) were prepared, and the sulfur content of the evaluation samples containing 0.01 wt % test compound was measured by an analytical curve method.

In data set [4] the test system is Human bone marrow-derived mesenchymal stem cells. The data set can be described thus: Mesenchymal stem cell proliferation system (cell number by DNA quantification). Particulars: for number of cells relative to control: mesenchymal stem cells.
Setting [5] is: Lonza serum-free medium, 37° C. for 7 days, test compound 25 ng/ml.
Setting [6] is: Lonza serum-free medium, 37° C. for 7 days, test compound 250 ng/ml.
Setting [7] is: Lonza serum-free medium, 37° C. for 7 days, test compound 25 μg/ml.
Setting [8] is: Lonza serum-free medium, 37° C. for 7 days, test compound 250 μg/ml.
Setting [9] is: effectiveness in ELISA evaluation of mesenchymal stem cells (medium), 4° C. control ratio.

T1 sequence (P09038 143-288): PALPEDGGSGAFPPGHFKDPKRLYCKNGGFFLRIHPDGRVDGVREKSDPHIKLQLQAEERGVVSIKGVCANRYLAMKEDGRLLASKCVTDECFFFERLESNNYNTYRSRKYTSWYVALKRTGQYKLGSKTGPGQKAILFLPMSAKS

Regarding L-triserine SO3Na, the “concentration showing a suppressive effect on a decrease in the bFGF concentration of the medium” value on bFGF [1] (Lonza serum-free medium, 37° C. for 7 days) was “not less than 25 μg/ml”. Besides, the “bFGF concentration relative to that of 4° C. control (ELISA)” value (shortened to “bFGF concentration relative to that”) on bFGF [1] (Lonza serum-free medium, 37° C. for 7 days, test compound 250 pg/ml) was “x (bFGF concentration was less than 10% relative to that of 4 °C control)”; on bFGF [1] (setting [5]), “x (bFGF concentration was less than 10% relative to that of 4 °C control)”; at bFGF [1] (setting [6]) it was “x (bFGF concentration was less than 10% relative to that of 4 °C control)”; at bFGF [1] (setting [7]), “− (bFGF concentration was not less than 10% and less than 30% relative to that of 4 °C control)”; on bFGF [1] (setting [8]), “++ (bFGF concentration was not less than 50% and less than 70% relative to that of 4 °C control)”. Further, the “concentration at which a decrease in the protein amount of FGF is not suppressed” value at bFGF [1] (as shown in the Examples (methods of Examples I-1 and II-1)) was “not more than 2.5 μg/ml”. For the same substance, the “effectiveness ELISA” value at bFGF [1] (summary grade of bFGF stabilization) is “++ (bFGF concentration was not less than 50% and less than 70% relative to that of 4 °C control)”. Moreover, the “bFGF concentration, 4° C. ctrl ratio” value on bFGF [2] (test compound 250 pg/ml) was “x (bFGF concentration was less than 10% relative to that of 4 °C control)”; at bFGF [2] (test compound 25 ng/ml), “x (bFGF concentration was less than 10% relative to that of 4 °C control)”; on bFGF [2] (test compound 250 ng/ml), “x (bFGF concentration was less than 10% relative to that of 4 °C control)”; on bFGF [2] (test compound 25 μg/ml) it was “++ (bFGF concentration was not less than 50% and less than 70% relative to that of 4 °C control)”; on bFGF [2] (test compound 250 μg/ml) it was “+++ (bFGF concentration was not less than 70% relative to that of 4 °C control)”. Also, the “sulfer content Found (inorganic analysis)” value in data set [3] was 18. For the same substance, in data set [4] (summary grade of cell proliferation), the effectiveness cells result is “⊚ (not less than 120)”. The “number of cells relative to control” value in data set [4] (test compound 25 pg/ml) is “— (100-50)”; in data set [4] (test compound 250 pg/ml) it was “◯ (not less than 100)”; in data set [4] (test compound 25 ng/ml), “— (100-50)”; in data set [4] (test compound 250 ng/ml), “— (100-50)”.
Consider stachyose SO3Na, for which the “bFGF concentration relative to that” value is “x (bFGF concentration was less than 10% relative to that of 4 °C control)” on bFGF [1] (setting [5]); “− (bFGF concentration was not less than 10% and less than 30% relative to that of 4 °C control)” at bFGF [1] (setting [6]); “+++ (bFGF concentration was not less than 70% relative to that of 4 °C control)” at bFGF [1] (setting [7]); “+++ (bFGF concentration was not less than 70% relative to that of 4 °C control)” at bFGF [1] (setting [8]); “x (bFGF concentration was less than 10% relative to that of 4 °C control)” on bFGF [2] (test compound 250 pg/ml); “x (bFGF concentration was less than 10% relative to that of 4 °C control)” on bFGF [2] (test compound 25 ng/ml). For the same substance, the “bFGF concentration relative to that” value at bFGF [2] (test compound 250 ng/ml) is “x (bFGF concentration was less than 10% relative to that of 4 °C control)”; on bFGF [2] (test compound 25 μg/ml), “x (bFGF concentration was less than 10% relative to that of 4 °C control)”; on bFGF [2] (test compound 250 μg/ml), “++ (bFGF concentration was not less than 50% and less than 70% relative to that of 4 °C control)”. Besides, on bFGF [1] (setting [9]), the “effectiveness ELISA” value was “+++ (+++ 70%<)”. In addition, the “concentration showing a suppressive effect on a decrease in the bFGF concentration of the medium” value on bFGF [2] is “not less than 250 μg/ml”. Besides, the “sulfur content Found (inorganic analysis)” value (“sulfur content Found” for short) in data set [3] is 18 wt %.
With xylitol SO3Na, the “bFGF concentration relative to that” value at bFGF [1] (setting [5]) was “x (bFGF concentration was less than 10% relative to that of 4 °C control)”; on bFGF [1] (setting [6]), “x (bFGF concentration was less than 10% relative to that of 4 °C control)”; at bFGF [1] (setting [7]), “x (bFGF concentration was less than 10% relative to that of 4 °C control)”; at bFGF [1] (setting [8]), “++ (bFGF concentration was not less than 50% and less than 70% relative to that of 4 °C control)”. Also, at bFGF [1] (setting [9]), the “effectiveness ELISA” value is recorded as “+++ (+++ 70%<)”. In addition, the “sulfur content Found” value in data set [3] is 25 wt %. The effectiveness cells entry in data set [4] (growth of mesenchymal stem cell, control ratio) is listed as “◯ (◯ not leas than 100%)”.
α-cyclodextrin SO3Na [α-CD•SO3Na]: the “bFGF concentration relative to that” value on bFGF [1] (setting [5]) was “x (bFGF concentration was less than 10% relative to that of 4 °C control)”; on bFGF [1] (setting [6]), “+ (bFGF concentration was not less than 30% and less than 50% relative to that of 4 °C control)”; on bFGF [1] (setting [7]), “− (bFGF concentration was not less than 10% and less than 30% relative to that of 4 °C control)”; at bFGF [1] (setting [8]) it was “+ (bFGF concentration was not less than 30% and less than 50% relative to that of 4 °C control)”; at bFGF [2] (test compound 250 pg/ml), “x (bFGF concentration was less than 10% relative to that of 4 °C control)”; at bFGF [2] (test compound 25 ng/ml), “x (bFGF concentration was less than 10% relative to that of 4 °C control)”. Besides, the entries for the “bFGF concentration relative to that” value at bFGF [2] (test compound 250 ng/ml), at bFGF [2] (test compound 25 μg/ml) and on bFGF [2] (test compound 250 μg/ml) were “x (bFGF concentration was less than 10% relative to that of 4 °C control)”, “+++ (bFGF concentration was not less than 70% relative to that of 4 °C control)” and “+++ (bFGF concentration was not less than 70% relative to that of 4 °C control)”, respectively. Also, at bFGF [1] (setting [9]), the “effectiveness ELISA” value was “++ (++ 50%<)”. The “concentration showing a suppressive effect on a decrease in the bFGF concentration of the medium” value at bFGF [2] is “not less than 2.5 μg/ml”. Further, the “sulfur content Found” value in data set [3] was 14 wt %.
